Assay results taken from patent US20160038526A1, “TREATMENT OF PROSTATE CANCER” (THOMAS JEFFERSON UNIVERSITY, priority 2012, published 2016).

Key:
[1] = molecular target: T1, Stat5a (Homo sapiens, UniProt P42229); test: Stat5 dimerization assay (FLAG-/MYC-tagged Stat5a co-immunoprecipitation) in PC-3 cells; format: cell-based; parameters: expressed in transfected cells; host or cells: PC-3; conditions: 2 hours pretreatment, hPrl 10 nM 30 minutes
T1 sequence (P42229 1-794): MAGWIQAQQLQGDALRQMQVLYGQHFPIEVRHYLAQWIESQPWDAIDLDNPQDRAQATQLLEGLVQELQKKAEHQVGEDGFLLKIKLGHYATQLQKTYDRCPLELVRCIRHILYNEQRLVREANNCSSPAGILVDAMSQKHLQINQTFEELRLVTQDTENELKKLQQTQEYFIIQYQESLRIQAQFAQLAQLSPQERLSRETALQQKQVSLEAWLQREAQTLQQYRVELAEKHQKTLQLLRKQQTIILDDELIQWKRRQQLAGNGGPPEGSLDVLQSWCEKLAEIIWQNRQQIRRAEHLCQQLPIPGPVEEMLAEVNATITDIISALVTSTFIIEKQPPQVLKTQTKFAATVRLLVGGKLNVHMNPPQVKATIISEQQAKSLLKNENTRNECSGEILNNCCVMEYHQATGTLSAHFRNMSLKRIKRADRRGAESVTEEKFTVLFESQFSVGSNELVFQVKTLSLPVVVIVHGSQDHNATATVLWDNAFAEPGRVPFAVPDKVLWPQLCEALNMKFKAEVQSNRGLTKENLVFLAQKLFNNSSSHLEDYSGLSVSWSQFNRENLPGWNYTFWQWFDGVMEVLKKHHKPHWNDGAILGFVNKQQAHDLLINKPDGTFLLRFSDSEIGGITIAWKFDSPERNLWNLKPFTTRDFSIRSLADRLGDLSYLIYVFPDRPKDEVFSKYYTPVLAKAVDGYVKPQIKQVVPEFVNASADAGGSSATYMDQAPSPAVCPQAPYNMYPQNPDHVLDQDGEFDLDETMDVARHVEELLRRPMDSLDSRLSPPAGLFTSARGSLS
Procedure: FLAG-tagged Stat5a and MYC-tagged Stat5a were generated as follows. Plasmid pCMV3-FLAG-Stat5a, pCMV3-MYC-Stat5a and pPrlR were co-transfected using FuGENE6 (Roche) into PC-3 cells (2 μg of each plasmid per 1×10^7 cells). The cells were starved for 20 hours, pretreated with N6BAP for 2 hours, then stimulated with hPrl (10 nM) in RPMI 1640 without serum for 30 minutes. The cell lysates were immunoprecipitated with 25 μl anti-FLAG M2 […] affinity gel (2 μg/ml, Sigma), anti-MYC pAb (1 μg/ml, Upstate) or normal rabbit serum (NRS). The primary antibodies were used in the immunoblottings at the following concentrations: anti-FLAG pAb (1:1000; Stratagene), anti-MYC mAb (1:1000; Sigma), anti-Stat5a/b mAb (1:250) (Transduction Laboratories) detected by horseradish peroxidase-conjugated secondary antibodies.
Lanes 1, 2, 4, 6, 8, 10, 12, 14 and 16 represent cells stimulated with human prolactin (Prl) for 30 minutes which induces dimerization of Stat5. Two hours prior to Prl-stimulation, the cells had been treated with DMSO (lanes 1-4), the control compound C5 (lanes 5 and 6) or N6BAP (lanes 7-16) to test whether the Stat5a/b-inhibitor compound, N6BAP, would be able to inhibit dimerization of Stat5. […] It should be noted the drug effect in this study was not due to cell apoptosis induction, as the treatment time was only 2 hours. […]

[2] = tested on: Bcl-xL; test: Expression of Stat5 target gene Bcl-xL in CWR22Rv1 and LNCaP cells (immunoblot); format: cell-based, human; conditions: 25 μM over time
Procedure: Exponentially growing CWR22Rv1 and LNCaP cells were treated with N6BAP or the control compound C5 (Ctrl) for 48 h at concentrations indicated in FIG. 6 and whole cell lysates were immunoblotted with anti-cyclinD1 mAb. Exponentially growing CWR22Rv1 and LNCaP cells were treated with N6BAP or control compound C5 (Ctrl) at 25 μM for the periods of time indicated in FIG. 6, and whole cell lysates were immunoblotted with anti-cyclinD1 mAb or anti-Bcl-X1 pAb. Cell pellets were solubilized in lysis buffer [10 mM Tris-HCl (pH 7.6), 5 mM EDTA, 50 mM sodium chloride, 30 mM sodium pyrophosphate, 50 mM sodium fluoride, 1 mM sodium orthovanadate, 1% Triton X-100, 1 mM phenylmethylsulfonyl fluoride, 5 μg/ml aprotinin, 1 μg/ml pepstatin A, and […]], rotated end-over-end at 4° C. for 60 min, and insoluble material was pelleted at 12,000×g for 30 min at 4° C. The protein concentrations of clarified cell lysates were determined by simplified Bradford method (Bio-Rad Laboratories, Hercules, Calif.). The following primary antibodies were used for Western blotting, at the following concentrations: anti-β-actin pAb (1:4,000; Sigma), anti-cyclin D1 mAb (1:1000, BD Biosciences) and Bcl-xL pAb (1:1000, Cell Signaling, Danvers, Mass.).

## O=P(O)(O)OC[C@H]1O[C@@H](n2cnc3c(NCc4ccccc4)ncnc32)[C@H](O)[C@@H]1O [N6BAP, N^6-benzyladenosine-5′-monophosphate]
[1]
  dimerization of Stat5a: effectively inhibited Stat5a dimerization
[2]
  expression of Bcl-xL: down-regulates expression
